IC50 data for 46 compounds are collected here from US8372885B2, “Organic compounds and their uses” (Novartis AG, priority 2008, dated 2013).

As a reminder, the IC50 is the midpoint of a concentration-inhibition curve.

Where two headings read alike, the source gives them in different places.

The assay concerns the target T1, P. aeruginosa LpxC (Pseudomonas aeruginosa, UniProt P47205).
T1 construct: made in house
T1 sequence (P47205 1-303): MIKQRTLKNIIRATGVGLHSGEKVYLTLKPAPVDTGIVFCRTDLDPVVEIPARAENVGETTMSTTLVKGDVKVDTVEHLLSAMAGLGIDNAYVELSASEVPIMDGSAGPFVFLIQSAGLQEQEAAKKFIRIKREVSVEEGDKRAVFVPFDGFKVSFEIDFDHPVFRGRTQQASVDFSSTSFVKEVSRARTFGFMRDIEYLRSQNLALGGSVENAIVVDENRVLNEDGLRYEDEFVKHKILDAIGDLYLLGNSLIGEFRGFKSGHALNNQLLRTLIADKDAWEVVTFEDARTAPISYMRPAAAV
The assay is described as follows: biochemical. The following applies: 1 nM P. aeruginosa LpxC, 30 min pre-incubation, 2 μM UDP-3-O-(R-3-hydroxydecanoyl)-GlcNAc, pH 7.5, room temperature. The text has this: The LC-MS/MS method for quantitation of LpxC product was developed using an Agilent 1200 Capillary HPLC system coupled to an Applied Biosystems MDS Sciex 4000QTRAP mass spectrometer. Both instruments are controlled using the Applied Biosystems MDS Sciex Analyst software. LpxC reaction product (UDP-3-O—(R-3-hydroxyacyl)-glucosamine) was produced by hydrolysis of LpxC substrate catalyzed by P. a. LpxC and purified using reversed phase chromatography on a Phenomenex Luna C18(2) 4.6×50 mm column. An LpxC product calibration curve was generated to evaluate the sensitivity and dynamic range of the LC-MS/MS method. Briefly, compounds are pre-incubated with 1 nM P. aeruginosa LpxC for 30 min. at room temperature. Reactions are initiated by the addition of 2 μM UDP-3-O—(R-3-hydroxydecanoyl)-GlcNAc. Reactions are conducted in a 96-well plate with a total volume of 100 μL in each well containing 50 mM Sodium phosphate pH 7.5, 0.005% Trition X-100 for 20 min at room temperature. After quenching with 1.8% HOAc (10 μL of a 20% HOAc added to each well), reaction mixtures are analyzed using the LC-MS/MS method and peak areas are transformed into product concentration using a LpxC product calibration curve. […] For IC50 determinations, peak areas are converted to percent inhibition in Microsoft Excel. Percent inhibition values are plotted vs. log compound concentration using XLfit. Data is fit to the four-parameter logistic equation using the non-linear regression algorithm in XLfit to return the IC50 and hill slope values.

[1] abbreviates: read-out: IC50 (LpxC inhibitory activity).
[2] abbreviates: IC50 (LpxC inhibitory activity).

In the case of `CC#CCOC1CCC(C(=O)N[C@H](C(=O)NO)[C@@H](C)N)CC1` (single isomer, unassigned) [Example 7], under setting [1], the 50% inhibitory concentration (IC50) turned out to be 380 nM.

With `CC#CCOc1ccc(C(=O)NC(C(=O)NO)C2(N)CC2)cc1` (stereo not shown) [Example 1, N-(1-(1-aminocyclopropyl)-2-(hydroxyamino)-2-oxoethyl)-4-(but-2-ynyloxy)benzamide], under setting [1], the IC50 is 13.7 nM. `CC(C)(C)C#CCOc1ccc(C(=O)NC(C(=O)NO)C(C)(C)N)cc1` (stereo not shown) [Example 4, N-(3-amino-1-(hydroxyamino)-3-methyl-1-oxobutan-2-yl)-4-(4,4-dimethylpent-2-ynyloxy)benzamide]: the 50% inhibitory concentration (IC50) under setting [1] was found to be 23 nM.

`CC#CCOc1ccc(C(=O)N[C@H](C(=O)NO)[C@H](N)C2CC2)cc1` [Example 5, N-((1R,2S)-1-amino-1-cyclopropyl-3-(hydroxyamino)-3-oxopropan-2-yl)-4-(but-2-ynyloxy)benzamide] returned an IC50 under setting [2] of 124 nM. Still for that read-out and setting: under `CC#CCOc1ccc(C(=O)N[C@H](C(=O)NO)[C@@H](N)C(F)(F)F)cc1` [Example 6, N-((2S,3R)-3-amino-4,4,4-trifluoro-1-(hydroxyamino)-1-oxobutan-2-yl)-4-(but-2-ynyloxy)benzamide] stands 13.5 nM. Turning to `CC(C)(O)C#CCOc1ccc(C(=O)NC(C(=O)NO)C(C)(C)N)cc1` (stereo not shown) [Example 8, N-(3-amino-1-(hydroxyamino)-3-methyl-1-oxobutan-2-yl)-4-(4-hydroxy-4-methylpent-2-ynyloxy)benzamide], the IC50 under setting [1] was determined as 183 nM. Regarding `CC#CCOc1ccc(C(=O)N[C@H](C(=O)NO)[C@@H](C)N)c(F)c1` [Example 9, N-((1S,2R)-2-Amino-1-hydroxycarbamoyl-propyl)-4-but-2-ynyloxy-2-fluoro-benzamide], the IC50 under setting [1] is 74.5 nM. Consider `CC#CCOc1ccc(C(=O)N[C@@H](CCCN)C(=O)NO)cc1` [Example 10, N-((S)-4-Amino-1-hydroxycarbamoyl-butyl)-4-but-2-ynyloxy-benzamide], for which the IC50 under setting [1] was determined as 2700 nM.

On to `CC(C)(N)[C@H](NC(=O)c1ccc(OCC#CC2=CCCC2)cc1)C(=O)NO` [Example 11, N-((S)-2-Amino-1-hydroxycarbamoyl-2-methyl-propyl)-4-(3-cyclopent-1-enyl-prop-2-ynyloxy)-benzamide], for which, under setting [1], the half-inhibitory concentration (IC50) was 1 nM. As to `CC(C)(N)[C@H](NC(=O)c1ccc(OCC#CC2=CCOCC2)cc1)C(=O)NO` [Example 12, N-((S)-2-Amino-1-hydroxycarbamoyl-2-methyl-propyl)-4-[3-(3,6-dihydro-2H-pyran-4-yl)-prop-2-ynyloxy]-benzamide], the IC50 under setting [1] was found to be 2 nM. On to `CC(C)(N)[C@H](NC(=O)c1ccc(OC/C=C/C#CCCO)cc1)C(=O)NO` [Example 15, N-((S)-2-Amino-1-hydroxycarbamoyl-2-methyl-propyl)-4-((E)-7-hydroxy-hept-2-en-4-ynyloxy)-benzamide], for which, under setting [1], the IC50 came out at 2 nM. Under setting [2], `CC#CCOc1ccc(C(=O)N[C@H](C(=O)NO)[C@@H](C)N)cc1` [Example 16] returned an IC50 of 8.7 nM. Turning to `C[C@@H](N)[C@H](NC(=O)c1ccc(OCC#Cc2ccccc2)cc1)C(=O)NO` [Example 17], under setting [1], the half-maximal inhibitory concentration (IC50) came to 1 nM. Turning to `C[C@@H](N)[C@H](NC(=O)c1ccc(C#CCOc2ccccc2)cc1)C(=O)NO` [Example 18], the 50% inhibitory concentration (IC50) under setting [1] is 7.6 nM. Turning to `CCC#CCOc1ccc(C(=O)N[C@H](C(=O)NO)[C@@H](C)N)cc1` [Example 19], the IC50 under setting [1] was determined as 7.6 nM. As to `CC#CCOc1ccc(C(=O)N[C@H](C(=O)NO)C(C)(C)O)cc1` [Example 20], under setting [1], the IC50 worked out at 6.5 nM. `CCC#CCOc1ccc(C(=O)NC(C(=O)NO)C(C)(C)N)cc1` (stereo not shown) [Example 21]: the IC50 under setting [1] is 1 nM. For the compound `CC#CCOc1ccc(-c2ccc(C(=O)N[C@H](C(=O)NO)C(C)(C)N)cc2)cc1` [Example 22], the IC50 under setting [1] was found to be 0.7 nM.

Turning to `CCCC#CCOc1ccc(C(=O)N[C@H](C(=O)NO)[C@@H](C)N)cc1` [Example 23], the concentration for half-maximal inhibition (IC50) under setting [1] was found to be 1.5 nM. As to `C#CC(C)(C)Oc1ccc(C(=O)NC(C(=O)NO)C(C)(C)N)cc1` (stereo not shown) [Example 24], the IC50 under setting [1] came to 1.4 nM. `CC#CCCOc1ccc(C(=O)NC(C(=O)NO)C(C)(C)N)cc1` (stereo not shown) [Example 25]: the IC50 under setting [1] came out at 35.1 nM. `CC#CCOc1ccc(C(=O)N[C@@H](C(=O)NO)[C@@H](N)C(C)C)cc1` [Example 26] gave a concentration for half-maximal inhibition (IC50) under setting [2] of 70 nM. As to `CC#CC(C)(C)Oc1ccc(C(=O)N[C@H](C(=O)NO)[C@@H](C)N)cc1` [Example 27], the half-inhibitory concentration (IC50) under setting [1] worked out at 73.3 nM.

For `CCCCCC#CCNc1ccc(C(=O)N[C@@H](CN)C(=O)NO)cn1` [Example 28], under setting [1], the IC50 was 55.7 nM. The same measure, in the same setting: under `C#CCOc1ccc(C(=O)N[C@H](C(=O)NO)[C@@H](C)N)cc1` [Example 29] stands 38.9 nM; under `C[C@@H](N)[C@H](NC(=O)c1ccc(OCCCC#Cc2ccccc2)cc1)C(=O)NO` [Example 30], 35.6 nM. With `CC#CC(C)Oc1ccc(C(=O)N[C@H](C(=O)NO)[C@@H](C)N)cc1` (stereo partly shown) [Example 31], the IC50 under setting [1] was 141 nM.

For `CC#CC(C)Oc1ccc(C(=O)N[C@H](C(=O)NO)[C@@H](C)N)cc1` (stereo partly shown) [Example 32], the concentration for half-maximal inhibition (IC50) under setting [1] is 231 nM. For `CC#CCOc1ccc(C(=O)N[C@H](C(=O)NO)[C@H](N)C(C)C)cc1` [Example 33], under setting [2], 268 nM corresponded to half-maximal inhibition (IC50). With `C[C@@H](N)[C@H](NC(=O)c1ccc(OCC#CC2CC2)cc1)C(=O)NO` [Example 34], the IC50 under setting [1] came out at 6 nM. `CC#CCOc1ccc(C(=O)N[C@H](C(=O)NO)C(C)(C)N)cc1F` [Example 35]: the half-maximal inhibitory concentration (IC50) under setting [1] came out at 2.6 nM. On to `CC#CCOc1ccc(C(=O)NC(C(=O)NO)C(C)(C)N)c(F)c1F` (stereo not shown) [Example 36], for which, under setting [1], the IC50 is 15.9 nM. Regarding `CCCCOc1ccc(C(=O)N[C@H](C(=O)NO)C(C)(C)N)cc1` [Example 37], the IC50 under setting [1] is 4 nM. Regarding `CC(C)(N)[C@H](NC(=O)c1ccc(OCC#CC2CC2)cc1)C(=O)NO` [Example 38], the IC50 under setting [1] stood at 0.4 nM.

For the compound `CC#CCOc1ccc(C(=O)NC(C(=O)NO)C(C)(C)N)cc1OC` (stereo not shown) [Example 39], the IC50 under setting [1] amounted to 151 nM. Take `CC#CCOc1c(Cl)cc(C(=O)NC(C(=O)NO)C(C)(C)N)cc1Cl` (stereo not shown) [Example 40]: under setting [1], the IC50 was found to be 34.6 nM. Still for that read-out and setting: under `C=C/C=C/COc1ccc(C(=O)NC(C(=O)NO)C(C)(C)N)cc1` (stereo not shown) [Example 41] stands 2.1 nM; under `CC#CCNc1ccc(C(=O)N[C@H](C(=O)NO)[C@@H](C)N)cc1` [Example 42], 27.3 nM. In the case of `C=C(C)C#CCOc1ccc(C(=O)N[C@H](C(=O)NO)C(C)(C)N)cc1` [Example 43], the 50% inhibitory concentration (IC50) under setting [1] turned out to be 1 nM. `COCC#CCOc1ccc(C(=O)N[C@H](C(=O)NO)[C@@H](C)N)cc1` [Example 44]: under setting [1], the 50% inhibitory concentration (IC50) came to 56.9 nM.

As to `CC(C)(N)C(NC(=O)c1ccc(OCC#CC2CCCC2)cc1)C(=O)NO` (stereo not shown) [Example 45], the IC50 under setting [1] was 2.2 nM. In the case of `C#C/C=C/COc1ccc(C(=O)N[C@H](C(=O)NO)[C@@H](C)N)cc1` [Example 46], the IC50 under setting [1] was found to be 5.5 nM. Same read-out and setting: under `CC(C)=CCOc1ccc(C(=O)NC(C(=O)NO)C(C)(C)N)cc1` (stereo not shown) [Example 47] stands 3.7 nM; under `CC(C)=CCC/C(C)=C/COc1ccc(C(=O)N[C@H](C(=O)NO)[C@@H](C)N)cc1` [Example 48], 10.2 nM.

As for `C[C@@H](N)[C@H](NC(=O)c1ccc(OCCC2CC2)cc1)C(=O)NO` [Example 49], the IC50 under setting [1] came to 24.6 nM. Turning to `C[C@@H](N)[C@H](NC(=O)c1ccc(OCCCC2CC2)cc1)C(=O)NO` [Example 50], under setting [1], the concentration for half-maximal inhibition (IC50) was 13.1 nM.
